Results taken from patent publication US8263606B2 (Xenon Pharmaceuticals Inc., priority 2008, dated 2012).
pIC50, pKi: −log10 of the molar value.

What was measured:
CYP3A4 = CYP3A4 (Homo sapiens, UniProt P08684); experiment: Cytochrome P450 (CYP450) Inhibition Assay, CYP3A4 (Vivid fluorescence, BOMCC substrate); conditions: human, P450 Baculosomes (recombinant CYP3A4), probe BOMCC (Vivid substrate)
[1] = tested on: inactivated state of the channel of interest (sodium channel); experiment: Electrophysiological assay (whole cell voltage clamp, in vitro); format: cell-based; conditions: affinity for the inactivated state of the channel of interest
Method: Cells expressing the channel of interest are cultured in DMEM growth media (Gibco) with 0.5 mg/mL G418, +/−1% PSG, and 10% heat-inactivated fetal bovine serum at 37° C. and 5% CO2. For electrophysiological recordings, cells are plated on 10 mm dishes.
Whole cell recordings are examined by established methods of whole cell voltage clamp (Bean et al., op. cit.) using an Axopatch 200B amplifier and Clampex software (Axon Instruments, Union City, Calif.). All experiments are performed at ambient temperature. Electrodes are fire-polished to resistances of 2-4 Mohms Voltage errors and capacitance artifacts are minimized by series resistance compensation and capacitance compensation, respectively. Data are acquired at 40 kHz and filtered at 5 kHz. The external (bath) solution consists of: NaCl (140 mM), KCl (5 mM), CaCl2 (2 mM), MgCl2 (1 mM), HEPES (10 mM) at pH 7.4. The internal (pipette) solution consists of (in mM): NaCl (5), CaCl2 (0.1), MgCl2 (2), CsCl (10), CsF (120), HEPES (10), EGTA (10), at pH 7.2.
To estimate the steady-state affinity of compounds for the resting and inactivated state of the channel (Kr and Ki, respectively), 12.5 ms test pulses to depolarizing voltages from −60 to +90 mV from a holding potential of −120 m V is used to construct current-voltage relationships (I-V curves). A voltage near the peak of the IV-curve (−30 to 0 m V) is used as the test pulse throughout the remainder of the experiment. Steady-state inactivation (availability) curves are then constructed by measuring the current activated during a 8.75 ms test pulse following 1 second conditioning pulses to potentials ranging from −120 to −10 m V.
The steady-state voltage-dependence of binding of a compound to a sodium channel is determined by measuring the blockage of the ionic current at two holding potentials. Binding to rested-state channels is determined by using a holding potential of −120 mV, so that maximal availability is achieved. Binding to inactivated-state channels is evaluated at a holding potential such that only 10% of the channels are available to open. The membrane potential is held at this voltage for at least 10 seconds so that drug binding can equilibrate.
The apparent dissociation constant at each voltage is calculated with the equation:
[formula] where Kd is the dissociation constant (either Kr or Ki), and [Drug] is the concentration of the test compound.
The Example numbers provided in Table 3 correspond to the Examples herein: […]

sodium channel = experiment: Guanidine influx assay (14C-guanidine radiotracer flux, in vitro); format: cell-based, human or rat; conditions: guanidine influx assay using a known cell line that expresses a sodium channel
Outline: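 Sodium channel block is measured as reduced 14C-guanidine uptake in cells stably expressing human or rat channels, stimulated with aconitine. Potency is given as IC50 from a four-parameter curve.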

Chain of CYP3A4 (P08684 whole entry): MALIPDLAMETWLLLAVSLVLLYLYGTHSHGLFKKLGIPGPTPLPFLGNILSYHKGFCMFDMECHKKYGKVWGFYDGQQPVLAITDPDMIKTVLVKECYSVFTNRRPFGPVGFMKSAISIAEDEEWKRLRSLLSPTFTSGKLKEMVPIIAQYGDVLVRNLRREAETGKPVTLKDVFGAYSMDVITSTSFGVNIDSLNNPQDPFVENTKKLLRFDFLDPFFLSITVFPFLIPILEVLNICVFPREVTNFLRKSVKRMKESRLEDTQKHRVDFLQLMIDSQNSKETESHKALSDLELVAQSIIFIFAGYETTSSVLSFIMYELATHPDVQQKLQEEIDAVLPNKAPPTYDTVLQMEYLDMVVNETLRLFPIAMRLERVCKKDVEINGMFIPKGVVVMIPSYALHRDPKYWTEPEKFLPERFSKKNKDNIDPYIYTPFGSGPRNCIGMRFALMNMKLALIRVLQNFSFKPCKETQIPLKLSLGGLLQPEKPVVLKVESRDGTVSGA

SMILES | inhibition at 10 µM (CYP3A4) [%] | pIC50 (sodium channel; activity level class) | melting point [°C] | pIC50 (sodium channel) | pKi [1]
O=C1N(Cc2cccnc2)c2ccccc2C12COc1cc3c(cc12)OCCO3 (stereo not shown) [Example 1.2, 1-(pyridin-3-ylmethyl)-2,3-dihydrospiro[furo[2,3-g][1,4]benzodioxine-8,3′-indol]-2′(1′H)-one] | < 50 | 7.00 to 9.00 | 142 to 143 | – | < 6.52
O=C1N(Cc2ccc(O)cn2)c2ccccc2[C@]12COc1cc3c(cc12)OCCO3 [Example 1.13, (8S)-1′-[(5-hydroxypyridin-2-yl)methyl]-2,3-dihydrospiro[furo[2,3-g][1,4]benzodioxine-8,3′-indol]-2′(1′H)-one] | < 50 | 6.00 to 7.00 | 256 to 258 | – | > 6.52
O=C1N(Cc2ccc(C(F)(F)F)o2)c2cc3c(cc2C12COc1cc4c(cc12)OCCO4)OCCO3 (stereo not shown) [Example 2.27, 6-((5-(trifluoromethyl)furan-2-yl)methyl)-2,3,3′,7′-tetrahydro-2′H-spiro[[1,4]dioxino[2,3-f]indole-8,8′-benzofuro[5,6-b][1,4]dioxin]-7(6H)-one] | > 50 | 6.00 to 7.00 | 176 to 178 | – | > 6.52
O=C1N(Cc2ccc(C(F)(F)F)o2)c2ccccc2C12COc1cc3c(cc12)OC(F)(F)O3 (stereo not shown) [Example 2.34, 2,2-difluoro-1′-{[5-(trifluoromethyl)furan-2-yl]methyl}spiro[furo[2,3-f][1,3]benzodioxole-7,3′-indol]-2′(1′H)-one] | > 50 | 6.00 to 7.00 | 59 to 60 | – | < 6.52
O=C1N(CC2CCOCC2)c2ccccc2C12COc1cc3c(cc12)CCO3 (stereo not shown) [Example 4.6, 1′-(tetrahydro-2H-pyran-4-ylmethyl)-5,6-dihydrospiro[benzo[1,2-b:5,4-b′]difuran-3,3′-indol]-2′(1′H)-one] | < 50 | 6.00 to 7.00 | – | – | < 6.52
O=C1N(CC2COCCO2)c2ccccc2C12COc1cc3c(cc12)CCO3 (stereo not shown) [Example 4.8, 1′-(1,4-dioxan-2-ylmethyl)-5,6-dihydrospiro[benzo[1,2-b:5,4-b′]difuran-3,3′-indol]-2′(1′H)-one] | < 50 | 7.00 to 9.00 | – | – | < 6.52
O=C1N(CC2CCCOC2)c2ccccc2C12COc1cc3c(cc12)CCO3 (stereo not shown) [Example 4.10, 1′-(tetrahydro-2H-pyran-3-ylmethyl)-5,6-dihydrospiro[benzo[1,2-b:5,4-b′]difuran-3,3′-indol]-2′(1′H)-one] | < 50 | 7.00 to 9.00 | – | – | < 6.52
O=C1N(CC2CCOC2)c2ccccc2C12COc1cc3c(cc12)CCO3 (stereo not shown) [Example 4.16, 1′-(tetrahydrofuran-3-ylmethyl)-5,6-dihydrospiro[benzo[1,2-b:5,4-b′]difuran-3,3′-indol]-2′(1′H)-one] | < 50 | 6.00 to 7.00 | – | – | < 6.52
O=C1N(CC2CCO2)c2ccccc2C12COc1cc3c(cc12)CCO3 (stereo not shown) [Example 4.20, 1′-(oxetan-2-ylmethyl)-5,6-dihydrospiro[benzo[1,2-b:5,4-b′]difuran-3,3′-indol]-2′(1′H)-one] | < 50 | 6.00 to 7.00 | – | – | < 6.52
COc1ccc2c(c1)OCC21C(=O)N(C[C@H]2CCCO2)c2ccccc21 (stereo partly drawn) [Example 4.68, 6-methoxy-1′-[(2R)-tetrahydrofuran-2-ylmethyl]spiro[1-benzofuran-3,3′-indol]-2′(1′H)-one] | < 50 | 6.00 to 7.00 | – | – | < 6.52
O=C1N(Cc2ccc(C(F)(F)F)o2)c2c(Cl)cccc2C12COc1cc3c(cc12)CCO3 (stereo not shown) [Example 5.1, 7′-chloro-1′-((5-(trifluoromethyl)furan-2-yl)methyl)-5,6-dihydro-2H-spiro[benzofuro[6,5-b]furan-3,3′-indolin]-2′-one] | > 50 | 6.00 to 7.00 | – | – | > 6.52
O=C1N(Cc2ncccc2C(F)(F)F)c2ccccc2[C@@]12COc1cc3c(cc12)OCCO3 [Example 7.15] | < 50 | 6.00 to 7.00 | – | – | < 6.52
CN(C)c1ccc(-c2cccc3c2C2(COc4cc5c(cc42)CCO5)C(=O)N3C[C@H]2CCCO2)cn1 (stereo partly drawn) [Example 16, 4′-[6-(dimethylamino)pyridin-3-yl]-1′-[(2R)-tetrahydrofuran-2-ylmethyl]-5,6-dihydrospiro[benzo[1,2-b:5,4-b′]difuran-3,3′-indol]-2′(1′H)-one] | > 50 | – | – | 6.00 to 7.00 | < 6.52

Second part, led by results:

inhibition at 10 µM (CYP3A4) [%] | pIC50 (sodium channel; activity level class) | melting point [°C] | pIC50 (sodium channel) | SMILES | pKi [1]
– | 7.00 to 9.00 | 198 to 200 | – | O=C1N(C[C@H]2COCCO2)c2ccccc2[C@]12COc1cc3c(cc12)OCCO3 [Example 8.7, (8S)-1′-[(2S)-1,4-dioxan-2-ylmethyl]-2,3-dihydrospiro[furo[2,3-g][1,4]benzodioxine-8,3′-indol]-2′(1′H)-one] | < 6.52
< 50 | 7.00 to 9.00 | – | – | CN1C(=O)COc2cc3c(cc21)OCC31C(=O)N(C[C@H]2CCCO2)c2ccccc21 (stereo partly drawn) [Example 9.23, 4-methyl-1′-(((R)-tetrahydrofuran-2-yl)methyl)-4,7-dihydrospiro[benzofuro[5,6-b][1,4]oxazine-8,3′-indoline]-2′,3(2H)-dione] | < 6.52
< 50 | – | – | 7.00 to 9.00 | COc1cc2c(cc1C)[C@@]1(CO2)C(=O)N(CN2CCN(C)CC2)c2ccccc21 [Example 11.64, (3S)-6-methoxy-5-methyl-1′-[(4-methylpiperazin-1-yl)methyl]spiro[1-benzofuran-3,3′-indol]-2′(1′H)-one hydrogen chloride] | < 6.52
< 50 | – | – | 5.00 to 6.00 | O=C1N(C[C@H]2CCCO2)c2ccccc2[C@@]12COc1cc3c(cc12)CCO3 [Example 11.67, (3R)-1′-[(2R)-tetrahydrofuran-2-ylmethyl]-5,6-dihydrospiro[benzo[1,2-b:5,4-b′]difuran-3,3′-indol]-2′(1′H)-one] | < 6.52
< 50 | – | – | 5.00 to 6.00 | O=C1N(C[C@@H]2CCCO2)c2ccccc2[C@]12COc1cc3c(cc12)CCO3 [Example 11.69, (3S)-1′-[(2S)-tetrahydrofuran-2-ylmethyl]-5,6-dihydrospiro[benzo[1,2-b:5,4-b′]difuran-3,3′-indol]-2′(1′H)-one] | < 6.52
< 50 | – | – | 6.00 to 7.00 | O=C1N(C[C@H]2CCCO2)c2cccc(-c3ccc(Oc4ccccc4)cc3)c2C12COc1cc3c(cc12)CCO3 (stereo partly drawn) [Example 16.6, 4′-(4-phenoxyphenyl)-1′-[(2R)-tetrahydrofuran-2-ylmethyl]-5,6-dihydrospiro[benzo[1,2-b:5,4-b′]difuran-3,3′-indol]-2′(1′H)-one] | > 6.52
< 50 | – | – | 6.00 to 7.00 | CC(C)COc1ccc(-c2cccc3c2C2(COc4cc5c(cc42)CCO5)C(=O)N3C[C@H]2CCCO2)cc1 (stereo partly drawn) [Example 16.7, 4′-[4-(2-methylpropoxy)phenyl]-1′-[(2R)-tetrahydrofuran-2-ylmethyl]-5,6-dihydrospiro[benzo[1,2-b:5,4-b′]difuran-3,3′-indol]-2′(1′H)-one] | > 6.52
> 50 | – | – | 7.00 to 9.00 | COc1ccc(-c2cccc3c2C2(COc4cc5c(cc42)CCO5)C(=O)N3C[C@H]2CCCO2)cc1 (stereo partly drawn) [Example 16.9, 4′-(4-methoxyphenyl)-1′-[(2R)-tetrahydrofuran-2-ylmethyl]-5,6-dihydrospiro[benzo[1,2-b:5,4-b′]difuran-3,3′-indol]-2′(1′H)-one] | > 6.52
> 50 | – | – | 5.00 to 6.00 | O=C1N(C[C@H]2CCCO2)c2cccc(-c3cncnc3)c2C12COc1cc3c(cc12)CCO3 (stereo partly drawn) [Example 16.10, 4′-pyrimidin-5-yl-1′-[(2R)-tetrahydrofuran-2-ylmethyl]-5,6-dihydrospiro[benzo[1,2-b:5,4-b′]difuran-3,3′-indol]-2′(1′H)-one] | < 6.52
